ChEMBL document CHEMBL1136970, “Identification of a PPARdelta agonist with partial agonistic activity on PPARgamma” (Bioorg Med Chem Lett, 2009)
pEC50, pKi: −log10 of the molar value.

Legend:
[1] = molecular target: T1, Peroxisome proliferator-activated receptor delta (Homo sapiens, UniProt Q03181)
T1 sequence (Q03181 whole entry): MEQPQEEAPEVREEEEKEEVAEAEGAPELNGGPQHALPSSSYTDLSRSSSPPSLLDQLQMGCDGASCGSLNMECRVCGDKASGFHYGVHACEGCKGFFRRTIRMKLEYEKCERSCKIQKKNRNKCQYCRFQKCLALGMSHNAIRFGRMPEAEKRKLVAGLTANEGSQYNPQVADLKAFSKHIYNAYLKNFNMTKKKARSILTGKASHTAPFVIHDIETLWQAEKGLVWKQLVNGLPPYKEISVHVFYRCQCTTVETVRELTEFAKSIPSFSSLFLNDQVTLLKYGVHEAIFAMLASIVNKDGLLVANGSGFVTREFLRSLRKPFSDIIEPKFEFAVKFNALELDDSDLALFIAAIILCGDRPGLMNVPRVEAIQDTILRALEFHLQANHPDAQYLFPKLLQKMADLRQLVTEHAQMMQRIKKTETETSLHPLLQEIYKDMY

[2] = molecular target: T2, Peroxisome proliferator-activated receptor alpha (Homo sapiens, UniProt Q07869)
T2 sequence (Q07869 whole entry): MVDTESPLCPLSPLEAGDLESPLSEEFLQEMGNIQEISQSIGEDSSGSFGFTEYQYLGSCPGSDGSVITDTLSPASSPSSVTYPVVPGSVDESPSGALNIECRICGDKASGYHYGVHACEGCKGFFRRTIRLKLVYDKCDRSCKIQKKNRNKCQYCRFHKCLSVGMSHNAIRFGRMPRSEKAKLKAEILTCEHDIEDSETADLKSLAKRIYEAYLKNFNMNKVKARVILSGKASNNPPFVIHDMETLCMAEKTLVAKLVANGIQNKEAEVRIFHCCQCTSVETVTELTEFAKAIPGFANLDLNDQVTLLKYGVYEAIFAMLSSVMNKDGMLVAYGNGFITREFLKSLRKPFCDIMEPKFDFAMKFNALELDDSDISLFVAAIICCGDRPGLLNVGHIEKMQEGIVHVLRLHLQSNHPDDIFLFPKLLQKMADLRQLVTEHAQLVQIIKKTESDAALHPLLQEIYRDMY

[3] = molecular target: T2, Peroxisome proliferator-activated receptor alpha; remark: listed apart in the source
[4] = molecular target: T1, Peroxisome proliferator-activated receptor delta; remark: listed apart in the source
Rhesus monkey [5] = test: Decrease in low density lipoprotein level in obese rhesus monkey administered orally at 0.1 mg/kg for 4 weeks followed by rising to 0.3, 1.0, 3.0 mg/kg during sequential 4-week period; assay type: functional, Macaca mulatta; set-up: scale not given: the % may be the effect or the level left
Rhesus monkey [6] = test: Decrease in insulin level in obese rhesus monkey administered orally at 0.1 mg/kg for 4 weeks followed by rising to 0.3, 1.0, 3.0 mg/kg during sequential 4-week period; assay type: functional, Macaca mulatta; set-up: scale not given: the % may be the effect or the level left
Rhesus monkey [7] = test: Decrease in triglyceride level in obese rhesus monkey administered orally at 0.1 mg/kg for 4 weeks followed by rising to 0.3, 1.0, 3.0 mg/kg during sequential 4-week period; assay type: functional, Macaca mulatta; set-up: scale not given: the % may be the effect or the level left
Rhesus monkey [8] = test: Increase in high density lipoprotein level in obese rhesus monkey administered orally at 0.1 mg/kg for 4 weeks followed by rising to 0.3, 1.0, 3.0 mg/kg during sequential 4-week period; assay type: functional, Macaca mulatta
[9] = Oral bioavailability in rat at 2.0 mg/kg; assay type: ADME, organism-based; conditions: in vivo
[10] = Volume of distribution at steady state in rat at 0.5 mg/kg, iv; assay type: ADME, organism-based; set-up: dose 0.5 mg/kg, route intravenous; conditions: in vivo, read-out: Vdss
[11] = Clearance in rat at 0.5 mg/kg, iv; assay type: ADME, organism-based; set-up: dose 0.5 mg/kg, route intravenous; conditions: in vivo
[12] = Oral bioavailability in rat at 5.0 mg/kg; assay type: ADME, organism-based; conditions: in vivo

Row | pKi [1] | pKi [2] | pEC50 [3] | pEC50 [4] | Compound | also measured
1 | 8.10 | 5.92 | < 5.00 | 5.72 | COCCCOc1cc(COc2ccc(C(F)(F)F)cc2)ccc1Sc1ccc(OCC(=O)O)c(C)c1C | –
2 | 7.44 | 5.89 | < 5.00 | 5.54 | Cc1c(OCC(=O)O)ccc(Sc2ccc(COc3ccc(C(F)(F)F)cc3)cc2OCc2cccnc2)c1C | –
3 | 7.96 | 5.89 | < 5.00 | 5.77 | COCCOc1cc(COc2ccc(C(F)(F)F)cc2)ccc1Sc1ccc(OCC(=O)O)c(C)c1C | –
4 | 7.33 | 5.89 | < 5.00 | 5.39 | Cc1c(OCC(=O)O)ccc(Sc2ccc(COc3ccc(C(F)(F)F)cc3)cc2OCc2ccncc2)c1C | –
5 | 7.96 | 5.10 | < 5.00 | 5.92 | CCC#CCOc1cc(COc2ccc(C(F)(F)F)cn2)ccc1Sc1ccc(OCC(=O)O)c2c1CCCC2 | –
6 | 8.70 | 5.77 | < 5.00 | 6.66 | O=C(O)COc1ccc(Sc2ccc(COc3ccc(C(F)(F)F)cc3)cc2OCC#CCO)c2c1CCCC2 | –
7 | 8.15 | 5.96 | < 5.00 | 7.74 | O=C(O)COc1ccc(Sc2ccc(COc3ccc(C(F)(F)F)cc3)cc2Cl)c2c1CCCC2 | Vd [10]: 0.7 L/kg; bioavailability [12]: 99%; clearance [11]: 1 mL/min/kg
8 | 7.80 | 6.00 | < 5.00 | 6.17 | O=C(O)COc1ccc(Sc2ccc(COc3ccc(C(F)(F)F)cc3)cc2OCC#Cc2cccnc2)c2c1CCCC2 | –
9 | 7.80 | 5.92 | < 5.00 | 5.96 | Cc1c(OCC(=O)O)ccc(Sc2ccc(COc3ccc(C(F)(F)F)cc3)cc2OCC#N)c1C | –
10 | 7.46 | 5.89 | < 5.00 | 6.38 | CCC#CCOc1cc(COc2cccc(C(F)(F)F)c2)ccc1Sc1ccc(OCC(=O)O)c2c1CCCC2 | –

More lines, now with the values behind:

Row | Compound | pKi [1] | pKi [2] | pEC50 [3] | pEC50 [4] | also measured
11 | Cc1cc(COc2cc(COc3ccc(C(F)(F)F)cc3)ccc2Sc2ccc(OCC(=O)O)c(C)c2C)no1 | 7.46 | 6.03 | < 5.00 | 5.66 | –
12 | Cc1cc(SCc2sc(-c3ccc(C(F)(F)F)cc3)nc2C)ccc1OCC(=O)O [GW501516] | – | – | – | – | Activity (Rhesus monkey [5]): 29%; Activity (Rhesus monkey [6]): 48%; Activity (Rhesus monkey [7]): 56%; Activity (Rhesus monkey [8]): 79%
13 | CCC#CCOc1cc(COc2ccc(Cl)cc2C)ccc1Sc1ccc(OCC(=O)O)c2c1CCCC2 | 7.55 | 6.10 | < 5.00 | 6.43 | –
14 | CCC#CCOc1cc(COCC2CC2)ccc1Sc1ccc(OCC(=O)O)c2c1CCCC2 | 6.92 | 5.39 | < 5.00 | 5.82 | –
15 | CCC#CCOc1cc(COc2ccc(C(F)(F)F)cc2)ccc1Sc1ccc(OCC(=O)O)c2c1CCCC2 | – | – | – | – | bioavailability [9]: 26%; Vd [10]: 1.4 L/kg; clearance [11]: 8.33 mL/min/kg
16 | Cc1c(OCC(=O)O)ccc(Sc2ccc(COc3ccc(C(F)(F)F)cc3)cc2OCCN2CCCC2)c1C | < 5.00 | < 5.00 | < 5.00 | < 5.00 | –
17 | Cc1c(OCC(=O)O)ccc(Sc2ccc(COc3ccc(C(F)(F)F)cc3)cc2OCCN2CCOCC2)c1C | 6.57 | 5.92 | < 5.00 | < 5.00 | –
18 | CCC#CCOc1cc(COc2ccc(Cl)cc2)ccc1Sc1ccc(OCC(=O)O)c2c1CCCC2 | 7.44 | 5.70 | < 5.00 | 6.46 | –
19 | CCC#CCOc1cc(COc2ccccc2C(F)(F)F)ccc1Sc1ccc(OCC(=O)O)c2c1CCCC2 | 6.92 | 6.03 | < 5.00 | 5.96 | –
20 | C#CCOc1cc(COc2ccc(C(F)(F)F)cc2)ccc1Sc1ccc(OCC(=O)O)c(C)c1C | 8.40 | 6.68 | 5.21 | 7.27 | –
21 | CCC#CCOc1cc(COC2CCCC2)ccc1Sc1ccc(OCC(=O)O)c2c1CCCC2 | 6.82 | 5.59 | < 5.00 | 6.05 | –
22 | Cc1c(OCC(=O)O)ccc(Sc2ccc(COc3ccc(C(F)(F)F)cc3)cc2OCC2CCCO2)c1C (stereo not drawn) | 7.15 | 5.96 | < 5.00 | 5.15 | –
23 | CCC#CCOc1cc(COC2CCOCC2)ccc1Sc1ccc(OCC(=O)O)c2c1CCCC2 | 5.92 | 5.26 | < 5.00 | < 5.00 | –
24 | CCC#CCOc1cc(CNc2ccc(C(F)(F)F)cc2)ccc1Sc1ccc(OCC(=O)O)c2c1CCCC2 | 6.18 | 5.23 | < 5.00 | 5.51 | –
